Entries after “also recorded” stand apart in the source; their conditions may differ. Read-outs that look alike come from different tables or passages of the source.
Experiments:
factor IIa = factor IIa (Homo sapiens, UniProt P00734)
[1] = tested on: merozoite invasion of erythrocytes (P. falciparum, parasite FCR3S1.2); assay: Merozoite invasion inhibition assay; type: cell-based; details: for Merozoite invasion into fresh red blood cells inhibited: parasite FCR3S1.2, FIG. 8
Protocol: The merozoite invasion inhibition assay was performed with chemically modified heparin and unfractionated heparin Mature pE (trophozoite) synchronized P. falciparum cultures with a parasitemia of 0.4% and a hematocrit of 2% were grown in micro-cultures (100 ul) in the presence of increasing concentrations of chemically modified heparin or unfractionated heparin at 37° C. for 24-30 h. In order to quantify the parasitemia, the samples were stained for 10 s with acridine orange and then analyzed using a FACS instrument from Becton Dickinson. A minimum of 50,000 cells per sample were collected.

[2] = tested on: P. falciparum-infected erythrocytes sequestered in the lungs
Protocol: Human pE were cultivated in vitro and enriched to a parasitemia above 70%. Prior to injection into the animals, human infected erythrocytes were radioactively labeled with ^99mTc. The rats were anaesthetized and the labeled pE erythrocytes were injected intravenously into the tail vein. […] The distribution of the labeled cells was monitored using a gamma camera for 30 min. The relative amount of labeled cells sequestered in the lungs was calculated by comparing the activity of excised lungs to that of the whole animal.

factor Xa [3] = tested on: factor Xa
[4] = tested on: rosettes of the parasite FCR3S1.2; assay: Rosette disruption in vitro, parasite clone FCR3S1.2 and parasite cultures; type: cell-based, Plasmodium falciparum; details: for Disruption of rosettes: parasite FCR3S1.2, FIG. 5
[5] = Coagulation parameters (APTT, PT) in citrate plasma of dosed rats; type: in vivo, Sprague-Dawley rats
Protocol: (§1) Heparin and a LMWH preparation (Fragmin) were also studied for comparison. Basic test procedures were as follows:
Forty minutes after dosing, the rats were sacrificed by full bleeding. Citrate stabilized plasma was prepared from the blood. Plasma was stored in aliquots of 1 or 0.5 mL at −70° C. until analysis of APTT and PT.
(§2) The following compounds and doses were tested (each in groups of 8 rats) in juvenile rats of age 14±1 days: • 2. Saline: (Negative Control) • 3.

[6] = tested on: rosettes of fresh isolates of children with severe, complicated or mild malaria; details: 100 and 1000 μg/ml, FIG. 6
[7] = Rat tail incision bleeding time after i.v. dosing; type: in vivo, Sprague-Dawley rats
Protocol: as §1
The incision was 9 mm long and 1 mm deep and was standardized using a template device. Blood was blotted from the incision until bleeding stopped. The time during which visible bleeding could be observed was measured, for up to 25 minutes. The longer the bleeding time, the more pronounced the anti-coagulant effects of the administered agent.
as §2

[8] = tested on: binding of pE to endothelial cells; assay: Cytoadherence blocking and disruption, dynamic incubation; type: cell-based, Plasmodium falciparum; details: for Binding of pE to endothelial cell inhibited or reversed: parasite FCR3S1.2, FIG. 7
factor Xa [9] = details: for comparison; not said whether anti-factor Xa or anti-factor IIa; cited from earlier work
[10] = rat bleeding model, normalized to unfractionated heparin = 1

## sevuparin sodium [DF02]
Factor IIa; drug substance Batch 1
  Anticoagulant FIIa activity: 4.6 IU/mg
Factor IIa; drug substance Batch 2
  Anticoagulant FIIa activity: 5.0 IU/mg
Factor IIa; drug substance Batch 3
  Anticoagulant FIIa activity: 3.8 IU/mg
[1]; in vitro
  Inhibitory effect on merozoite invasion compared with heparin: equal potency per mg to heparin; also recorded: equal to those of standard heparin
[1]
  Merozoite invasion into fresh red blood cells inhibited: dose dependent manner
[2]; FIG. 9
  Sequestration of infected erythrocytes in the lungs of rats: can be inhibited
[2]; rat
  Retention of uninfected labeled human erythrocytes, co-injection versus no substance: No difference was seen
Factor Xa [3]; drug substance Batch 1
  Anticoagulant activity anti-factor Xa: 3.9 IU/mg
Factor Xa [3]; drug substance Batch 2
  Anticoagulant activity anti-factor Xa: 4.9 IU/mg
Factor Xa [3]; drug substance Batch 3
  Anticoagulant activity anti-factor Xa: 5.5 IU/mg
[4]; 1000 μg/ml, with some parasites
  Disruption of rosettes at highest concentration: total or close to total disruption of rosettes
[4]
  Disruption of rosettes: dose dependent manner
[5]; adult rats, i.v.
  Effect on PT: too weak to allow for comparative estimates
[5]; juvenile rats, age 14±1 days
  Effect on PT: weak
[5]; [10]
  Relative Doses (estimated equipotent relative doses), APTT: 30-40
[6]
  Sensitivity of rosettes of fresh isolates to treatment: sensitive
[7]; adult rats, i.v.
  Anti-coagulant effect (bleeding time and coagulation parameters): low anti-coagulant effect
[7]; juvenile rats, age 14±1 days
  Anti-coagulant effect (bleeding time and coagulation parameters): low anti-coagulant effect
[7]; [10]
  Relative Doses (estimated equipotent relative doses), Bleeding time: 30-50
[8]; pE adhered to the endothelium before incubation, FIG. 7
  Cytoadherence disruption: reduction of binding: Up to 80%
[8]; pE and substance added simultaneously to the endothelium
  Cytoadherence blocking: binding of pE blocked compared with untreated samples: Up to 80%
[8]
  Binding of pE to endothelial cell inhibited or reversed: dose dependent manner

## Heparin [reference compound]
[1]
  Merozoite invasion into fresh red blood cells inhibited: dose dependent manner
Factor Xa [9]
  Specific anti-coagulant activity, value corresponding to Table 5: at least 180 IU/mg
[4]
  Disruption of rosettes: dose dependent manner
[5]; rat, in vivo
  Relative Doses (estimated equipotent relative doses), APTT: 1
[7]; rat, in vivo
  Relative Doses (estimated equipotent relative doses), Bleeding time: 1
[7]; rat, in vivo, iv
  Anti-coagulant effect (bleeding time and coagulation parameters): profound effect on all parameters
[8]
  Binding of pE to endothelial cell inhibited or reversed: dose dependent manner

— patent US9480701B2, “Low anticoagulant heparins” (priority 2012, dated 2016)
